Molecular target: T1, PD-1/PD-L1 protein/protein interaction (Homo sapiens, UniProt Q9NZQ7)
T1 construct: Recombinant human PD-L1 protein (19-238) with a His-tag at the C-terminus; purchased AcroBiosystems PD1-H5229 (PD-L1); PD1-H5257 (PD-1)
Test: PD-1/PD-L1 homogenous time-resolved fluorescence (HTRF) binding assay
Conditions: recombinant human PD-L1 (19-238)-His 10 nM, human PD-1 (25-167)-Fc 3 nM, 25° C., PBS pH 7.4
Method: Resolved Fluorescence (HTRF) Binding Assay
The assays were conducted in a standard black 384-well polystyrene plate with a final volume of 20 μL. Inhibitors were first serially diluted in DMSO and then added to the plate wells before the addition of other reaction components. The final concentration of DMSO in the assay was 1%. The assays were carried out at 25° C. in the PBS buffer (pH 7.4) with 0.05% Tween-20 and 0.1% BSA. Recombinant human PD-L1 protein (19-238) with a His-tag at the C-terminus was purchased from AcroBiosy stems (PD1-H5229). Recombinant human PD-1 protein (25-167) with Fc tag at the C-terminus was also purchased from AcroBiosystems (PD1-H5257). PD-L1 and PD-1 proteins were diluted in the assay buffer and 10 μL was added to the plate well. Plates were centrifuged and proteins were preincubated with inhibitors for 40 min. The incubation was followed by the addition of 10 μL of HTRF detection buffer supplemented with Europium cryptate-labeled anti-human IgG (PerkinElmer-AD0212) specific for Fc and anti-His antibody conjugated to SureLight®—Allophycocyanin (APC, PerkinElmer-AD0059H). After centrifugation, the plate was incubated at 25° C. for 60 min. Before reading on a PHERAstar FS plate reader (665 nm/620 nm ratio). Final concentrations in the assay were—3 nM PD1, 10 nM PD-L1, 1 nM europium anti-human IgG and 20 nM anti-His-Allophycocyanin. IC50 determination was performed by fitting the curve of percent control activity versus the log of the inhibitor concentration using the GraphPad Prism 5.0 software.
Data obtained for the Example compounds using the PD-1/PD-L1 homogenous time-resolved fluorescence (HTRF) binding assay described in Example A is provided in Table 2.

T1 sequence (Q9NZQ7 19-238): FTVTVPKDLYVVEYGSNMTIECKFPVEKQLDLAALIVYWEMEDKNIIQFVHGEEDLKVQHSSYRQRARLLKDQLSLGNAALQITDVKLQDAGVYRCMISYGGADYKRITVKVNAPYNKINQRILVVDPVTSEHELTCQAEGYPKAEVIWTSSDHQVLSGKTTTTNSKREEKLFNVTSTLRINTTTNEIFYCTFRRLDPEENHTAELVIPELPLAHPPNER

IC50 [µM]	Compound
≤ 0.025	CC(=O)N1CCc2c(-c3cccc4c3CCN4C(=O)c3nc4c(s3)CN(CC(=O)O)CC4)cccc21 [Example 2, 2-(2-(1′-acetyl-[4,4′-biindoline]-1-carbonyl)-6,7-dihydrothiazolo[5,4-c]pyridin-5(4H)-yl)acetic acid]
0.025 to 0.1	O=C(O)CN1CCc2nc(C(=O)N3CCc4c(-c5cccc6c5CCN6C(=O)c5nccs5)cccc43)sc2C1 [Example 24, 2-(2-(1′-(thiazole-2-carbonyl)-[4,4′-biindoline]-1-carbonyl)-6,7-dihydrothiazolo[5,4-c]pyridin-5(4H)-yl)acetic acid]
≤ 0.025	Cc1c(OCCCN2CCC(O)C2)cccc1-c1cccc2c1CCN2C(=O)c1cn2c(n1)CNCC2 (stereo not shown) [Example 41, (4-(3-(3-(3-hydroxypyrrolidin-1-yl)propoxy)-2-methylphenyl)indolin-1-yl)(5,6,7,8-tetrahydroimidazo[1,2-a]pyrazin-2-yl)methanone]
≤ 0.025	O=C(O)CN1CCc2nc(C(=O)N3CCc4c(-c5ccc(OCCCN6CCC(O)C6)cc5)cccc43)sc2C1 (stereo not shown) [Example 50, 2-(2-(4-(4-(3-(3-hydroxypyrrolidin-1-yl)propoxy)phenyl)indoline-1-carbonyl)-6,7-dihydrothiazolo[5,4-c]pyridin-5(4H)-yl)acetic acid]
0.025 to 0.1	Cc1ccccc1-c1cccc2c1CCN2C(=O)c1nc2c(s1)CN(CC(=O)O)CC2 [Example 5, 2-(2-(4-(o-tolyl)indoline-1-carbonyl)-6,7-dihydrothiazolo[5,4-c]pyridin-5(4H)-yl)acetic acid]
≤ 0.025	O=C(O)CN1CCc2nc(C(=O)N3CCc4c(-c5cccc(CCCN6CCOCC6)c5)cccc43)sc2C1 [Example 17, 2-(2-(4-(3-(3-morpholinopropyl)phenyl)indoline-1-carbonyl)-6,7-dihydrothiazolo[5,4-c]pyridin-5(4H)-yl)acetic acid]
≤ 0.025	Cc1c(OCCCN2CCOCC2)cccc1-c1cccc2c1CCN2C(=O)c1nc2c(o1)CN(CC(=O)O)CC2 [Example 23, 2-(2-(4-(2-methyl-3-(3-morpholinopropoxy)phenyl)indoline-1-carbonyl)-6,7-dihydrooxazolo[5,4-c]pyridin-5(4H)-yl)acetic acid]
≤ 0.025	Cc1c(NC(=O)CCN2CCC(O)C2)cccc1-c1cccc2c1CCN2C(=O)c1nc2c(n1C)CNCC2 (stereo not shown) [Example 34, 3-(3-hydroxypyrrolidin-1-yl)-N-(2-methyl-3-(1-(3-methyl-4,5,6,7-tetrahydro-3H-imidazo[4,5-c]pyridine-2-carbonyl)indolin-4-yl)phenyl)propanamide]
≤ 0.025	Cc1c(NC(=O)CCN2CCC(O)C2)cccc1-c1cccc2c1CCN2C(=O)c1nc2c(o1)CN(CC(=O)O)CC2 (stereo not shown) [Example 22, 2-(2-(4-(3-(3-(3-hydroxypyrrolidin-1-yl)propanamido)-2-methylphenyl)indoline-1-carbonyl)-6,7-dihydrooxazolo[5,4-c]pyridin-5(4H)-yl)acetic acid]

Compound	IC50 [µM]
O=C(O)CN1CCc2nc(C(=O)N3CCc4c(-c5cccc(OCCCCN6CCC(O)C6)c5)cccc43)sc2C1 (stereo not shown) [Example 9, 2-(2-(4-(3-(4-(3-hydroxypyrrolidin-1-yl)butoxy)phenyl)indoline-1-carbonyl)-6,7-dihydrothiazolo[5,4-c]pyridin-5(4H)-yl)acetic acid]	≤ 0.025

Source: patent publication US20220119411A1, “IMMUNOMODULATORS, COMPOSITIONS AND METHODS THEREOF” (BETTA PHARMACEUTICALS CO., LTD, priority 2018, published 2022)
